Results as given in ChEMBL document CHEMBL1201862, “PubChem BioAssay data set” (2004).
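Step 1: Grow cells in 96-well plates. Step 2: Expose to compound for 48 hours at 5 concentrations. Step 3: Interpolate endpoints linearly; if unreached, use highest concentration. GI50: concentration for 50% inhibition of growth.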 The source made the active and inactive calls. Cut-off read from the data, not from the text of the source: active = GI50 up to about 1.1 µM and inactive = higher.

Experiments:
Experiment in all cases: inhibition of tumour cell growth, NCI panel, 48 h
A549 = system: A549
BT-549 = system: BT-549
CAKI-1 = system: CAKI-1
CCRF-CEM = system: CCRF-CEM
COLO 205 = system: COLO 205
IGROV-1 = system: IGROV-1
K562 = system: K562
KM12 = system: KM12
M14 = system: M14
MDA-N = system: MDA-N
NCI-H226 = system: NCI-H226
OVCAR-3 = system: OVCAR-3
RXF 393 = system: RXF 393
SK-MEL-5 = system: SK-MEL-5
SK-OV-3 = system: SK-OV-3
SN12C = system: SN12C
SR = system: SR
SW-620 = system: SW-620
UACC-257 = system: UACC-257
UO-31 = system: UO-31

| SMILES | GI50 (A549) | GI50 (BT-549) | GI50 (CAKI-1) | GI50 (CCRF-CEM) | GI50 (COLO 205) | GI50 (IGROV-1) | GI50 (K562) | GI50 (KM12) | GI50 (M14) | GI50 (MDA-N) | GI50 (NCI-H226) | GI50 (OVCAR-3) | GI50 (RXF 393) | GI50 (SK-MEL-5) | GI50 (SK-OV-3) | GI50 (SN12C) | GI50 (SR) | GI50 (SW-620) | GI50 (UACC-257) | GI50 (UO-31) |
| --- | --- | --- | --- | --- | --- | --- | --- | --- | --- | --- | --- | --- | --- | --- | --- | --- | --- | --- | --- | --- |
| CN1CCN(CCCCNc2cc3c4ccccc4c(NCCCCN4CCN(C)CC4)cc3c3ccccc23)CC1 | 1.37 µM (inactive) | 5.89 µM (inactive) | 9.77 µM (inactive) | 0.703 µM (active) | 2.36 µM (inactive) | 1.93 µM (inactive) | 1.57 µM (inactive) | 1.55 µM (inactive) | 0.895 µM (active) | 0.317 µM (active) | 13.4 µM (inactive) | 2.98 µM (inactive) | 1.41 µM (inactive) | 1.44 µM (inactive) | 14.6 µM (inactive) | 2.61 µM (inactive) | 0.443 µM (active) | 1.43 µM (inactive) | 4.79 µM (inactive) | 2.69 µM (inactive) |
| Oc1ccc(Nc2nc(Cl)c3nc[nH]c3n2)cc1 | > 100 µM (inactive) | > 100 µM (inactive) | 61.9 µM (inactive) | 37.9 µM (inactive) | > 100 µM (inactive) | 67.6 µM (inactive) | 50.8 µM (inactive) | > 100 µM (inactive) | > 100 µM (inactive) | > 100 µM (inactive) | > 100 µM (inactive) | > 100 µM (inactive) | > 100 µM (inactive) | > 100 µM (inactive) | > 100 µM (inactive) | > 100 µM (inactive) | 28.1 µM (inactive) | > 100 µM (inactive) | > 100 µM (inactive) | > 100 µM (inactive) |
| O=C(O)CCc1nc2c(n1-c1ccccc1)C(=O)c1ccccc1C2=O | > 100 µM (inactive) | > 100 µM (inactive) | > 100 µM (inactive) | > 100 µM (inactive) | > 100 µM (inactive) | > 100 µM (inactive) | > 100 µM (inactive) | > 100 µM (inactive) | > 100 µM (inactive) | > 100 µM (inactive) | > 100 µM (inactive) | > 100 µM (inactive) | > 100 µM (inactive) | > 100 µM (inactive) | > 100 µM (inactive) | > 100 µM (inactive) | > 100 µM (inactive) | > 100 µM (inactive) | > 100 µM (inactive) | > 100 µM (inactive) |
| COc1ccccc1N1C(=O)CS(=O)(=O)C1c1cccc(Oc2ccccc2)c1 (configuration not stated) | 18.9 µM (inactive) | 16.9 µM (inactive) | 19.9 µM (inactive) | 25.8 µM (inactive) | 16.1 µM (inactive) | – | 4.06 µM (inactive) | 15.7 µM (inactive) | 16.6 µM (inactive) | 4.3 µM (inactive) | 14.6 µM (inactive) | 18.7 µM (inactive) | 16.9 µM (inactive) | 14.4 µM (inactive) | 23.8 µM (inactive) | 17.1 µM (inactive) | 5.57 µM (inactive) | 19.4 µM (inactive) | 11.9 µM (inactive) | 19.9 µM (inactive) |
| Fc1cc(C2=Nn3c(CNc4ccc(Cl)cc4)nnc3S/C2=C\c2ccc(-c3ccc(Cl)cc3)o2)c(Cl)cc1Cl | 35.6 µM (inactive) | > 100 µM (inactive) | 23.6 µM (inactive) | 67.1 µM (inactive) | 14.3 µM (inactive) | 17.7 µM (inactive) | 11.9 µM (inactive) | > 100 µM (inactive) | 53.3 µM (inactive) | > 100 µM (inactive) | 26.5 µM (inactive) | 29.6 µM (inactive) | 13.4 µM (inactive) | 26.1 µM (inactive) | – | 33.3 µM (inactive) | 29.6 µM (inactive) | > 100 µM (inactive) | > 100 µM (inactive) | 11.8 µM (inactive) |
| CCCC(=O)N(C(=O)CCC)C1=C(Cl)C(=O)c2ccccc2C1=O | 6.73 µM (inactive) | 3.41 µM (inactive) | 2.24 µM (inactive) | 2.09 µM (inactive) | 2.91 µM (inactive) | 5.66 µM (inactive) | 2.18 µM (inactive) | 3.49 µM (inactive) | 6.62 µM (inactive) | 7.45 µM (inactive) | 8.38 µM (inactive) | 3.21 µM (inactive) | 2.17 µM (inactive) | 3.1 µM (inactive) | 15.5 µM (inactive) | 13.3 µM (inactive) | 3.02 µM (inactive) | 2.87 µM (inactive) | 3.42 µM (inactive) | 1.62 µM (inactive) |
| COC(=O)C1C(O)CCC2CN3CCc4c([nH]c5cccc(OC)c45)C3CC21 (configuration not stated) | > 100 µM (inactive) | > 100 µM (inactive) | > 100 µM (inactive) | > 100 µM (inactive) | > 100 µM (inactive) | > 100 µM (inactive) | > 100 µM (inactive) | > 100 µM (inactive) | > 100 µM (inactive) | > 100 µM (inactive) | > 100 µM (inactive) | > 100 µM (inactive) | 59.2 µM (inactive) | – | > 100 µM (inactive) | > 100 µM (inactive) | > 100 µM (inactive) | > 100 µM (inactive) | > 100 µM (inactive) | 76 µM (inactive) |
| CC(NC1=NCCO1)c1ccsc1 (configuration not stated) | 39.4 µM (inactive) | 31.6 µM (inactive) | > 100 µM (inactive) | 19.4 µM (inactive) | 17.9 µM (inactive) | 34.8 µM (inactive) | 21.4 µM (inactive) | 18.8 µM (inactive) | 17.6 µM (inactive) | 24.2 µM (inactive) | 58.1 µM (inactive) | 28.8 µM (inactive) | 33.5 µM (inactive) | 20 µM (inactive) | 71.8 µM (inactive) | – | 24.8 µM (inactive) | 21.5 µM (inactive) | 14.4 µM (inactive) | > 100 µM (inactive) |
| COc1ccc(C2=NN(c3ccccc3)C(c3cc4cc(Br)ccc4nc3Cl)C2)cc1 (configuration not stated) | 15.1 µM (inactive) | > 25 µM (inactive) | 22.8 µM (inactive) | 24.2 µM (inactive) | 9.71 µM (inactive) | 15.2 µM (inactive) | 14.1 µM (inactive) | 11.4 µM (inactive) | > 25 µM (inactive) | 20.8 µM (inactive) | > 25 µM (inactive) | > 25 µM (inactive) | > 25 µM (inactive) | > 25 µM (inactive) | > 25 µM (inactive) | > 25 µM (inactive) | 16.3 µM (inactive) | 24.9 µM (inactive) | – | > 25 µM (inactive) |
| O=C(CCCCCC(=O)N1CC(CCl)c2ccc([N+](=O)[O-])cc21)N1CC(CCl)c2ccc([N+](=O)[O-])cc21 (configuration not stated) | – | > 100 µM (inactive) | > 100 µM (inactive) | 91.4 µM (inactive) | > 100 µM (inactive) | > 100 µM (inactive) | > 100 µM (inactive) | > 100 µM (inactive) | > 100 µM (inactive) | > 100 µM (inactive) | > 100 µM (inactive) | > 100 µM (inactive) | > 100 µM (inactive) | 52.5 µM (inactive) | > 100 µM (inactive) | > 100 µM (inactive) | 9.31 µM (inactive) | > 100 µM (inactive) | > 100 µM (inactive) | > 100 µM (inactive) |
| CC(=O)O[C@@H]1[C@@H](C)[C@]2(CC(c3ccoc3)OC2O)C2CCC3O[C@]3(C)[C@]2(C)[C@@H]1OC(C)=O (some centres not stated) | 47.3 µM (inactive) | 25.2 µM (inactive) | > 100 µM (inactive) | 18.2 µM (inactive) | 20.3 µM (inactive) | 41.8 µM (inactive) | – | 23.8 µM (inactive) | 82.6 µM (inactive) | 42.1 µM (inactive) | 27.7 µM (inactive) | 42 µM (inactive) | 35.1 µM (inactive) | 25.4 µM (inactive) | > 100 µM (inactive) | 39 µM (inactive) | 23.4 µM (inactive) | 36.4 µM (inactive) | 29.4 µM (inactive) | 37.2 µM (inactive) |
| O=C(O)[C@H]1NC[C@@H]2ON=C(Br)[C@@H]21 | > 100 µM (inactive) | > 100 µM (inactive) | > 100 µM (inactive) | > 100 µM (inactive) | > 100 µM (inactive) | > 100 µM (inactive) | > 100 µM (inactive) | > 100 µM (inactive) | > 100 µM (inactive) | > 100 µM (inactive) | > 100 µM (inactive) | > 100 µM (inactive) | > 100 µM (inactive) | > 100 µM (inactive) | > 100 µM (inactive) | > 100 µM (inactive) | > 100 µM (inactive) | > 100 µM (inactive) | > 100 µM (inactive) | > 100 µM (inactive) |
| O=C1Nc2c(Cl)cc(Cl)cc2/C1=N/N=C/c1ccco1 | 33.4 µM (inactive) | 22.2 µM (inactive) | 24.3 µM (inactive) | 29 µM (inactive) | 22.4 µM (inactive) | 27.5 µM (inactive) | 31.4 µM (inactive) | 25.4 µM (inactive) | 34.7 µM (inactive) | 18.9 µM (inactive) | 23 µM (inactive) | 24.7 µM (inactive) | 32.1 µM (inactive) | 29.6 µM (inactive) | 67.3 µM (inactive) | 26.6 µM (inactive) | 24.8 µM (inactive) | 37 µM (inactive) | 44 µM (inactive) | 20.5 µM (inactive) |
| Cc1cc(O)c2c(c1)C[C@@H](O)C1=C2C(=O)c2c(O)ccc(OC3CC(O)C(OC4CC(OC5CCC(OC6CC(O)C(OC7CC(OC8CCC(O)C(C)O8)C(O)C(C)O7)C(C)O6)C(C)O5)C(O)C(C)O4)C(C)O3)c2C1=O (some centres not stated) | 0.302 µM (active) | 0.327 µM (active) | 0.138 µM (active) | 0.0531 µM (active) | 0.0488 µM (active) | 0.176 µM (active) | 0.0653 µM (active) | 0.0998 µM (active) | 0.0789 µM (active) | 0.155 µM (active) | 0.268 µM (active) | 0.0641 µM (active) | 0.0687 µM (active) | 0.0879 µM (active) | – | 0.0581 µM (active) | 0.0715 µM (active) | 0.0381 µM (active) | 0.11 µM (active) | 0.156 µM (active) |
